The experiment concerns shoot explant. Kind of experiment: in vitro flowering on flowering medium (MS medium with growth regulators). Also noted: species or system grasses. As for the experimental part: In a preferred embodiment, seeds are washed in running tap water with a drop of soap for 5 mins and sterilized with 95% ethyl alcohol for 2 min followed by a 15 minute treatment with 10% bleach and washed three times for 5 min intervals with sterile distilled water. Ten seeds are germinated in each petriplate with MS medium with […]. After germination on MS 2,4-D, for a period of time, such as 3-7 days in the dark at 24±2° C. The flowering medium preferably comprises a substituted phenylurea cytokinin analog, such as TDZ and a cytokinin such as BAP.
Cultures are incubated at 24±2° C. under a 16/8-hour […] photoperiod provided by cool-white fluorescent lights at a quantum flux density of 30 μmol s^−1 m^−2. Following a passage of time, typically within 2 weeks, callus induction occurs, having taken the first internode of the germinated seed (on MS 4 mg/L 2,4-D medium). After about two weeks, the callus is transferred to regeneration medium, to allow for shoot induction (MS, 0.5 mg/L BAP, 0.1 mg/L 2,4-D, 38 mg/L CuSO4). During this time (shoot regeneration), cultures are incubated with necessary dark photoperiodic conditions to promote growth and to mimic natural growing conditions. Additionally, over time it may be necessary to subculture the explants with fresh MS, BAP, 2,4-D, CuSO4. […]

As to `O=C(Nc1ccccc1)Nc1cnns1` [TDZ, 1-phenyl-3-(1,2,3-thiadiazol-5-yl)urea], where the note is “TDZ 2.0 mg/L combined with BAP 1.0 mg/L in flowering medium”, the “flower production on shoot explant” value is “flowers are produced directly on a shoot explant”. In addition, the “flower production on shoots developed from callus” value (TDZ 1.0-2.0 mg/L without BAP) was “produces flowers on shoots developed from callus”.

(Values after patent US20110239322A1, “IN VITRO FLOWERING/SEED SET LEADING TO PARTIAL OR COMPLETE MALE STERILITY IN GRASSES” (THE PENN STATE RESEARCH FOUNDATION, priority 2010, published 2011).)
